Four compounds from ChEMBL document CHEMBL5625208, “Tumor selective self-assembled nanomicelles of carbohydrate-epothilone B conjugate for targeted chemotherapy” (Eur J Med Chem, 2023) can be followed below.

Active and inactive are the calls of the source. The calls are words filed in the database; no cut-off is given here.

In data set [1] the test system is HepG2. In words: Antiproliferative activity against human HepG2 cells assessed as reduction in cell viability after 72 hrs by MTT assay. The format is functional, cell-based. (In general: Tetrazolium assays rely on reduction of a dye to a coloured formazan, in cell work by metabolically active cells.)
The test system of data set [2] is NCI-H460. Put plainly: Antiproliferative activity against human NCI-H460 cells assessed as reduction in cell viability after 72 hrs by MTT assay. The data set is classed as functional, cell-based.
For data set [3], the system named is MCF7. In words: Antiproliferative activity against human MCF7 cells assessed as reduction in cell viability after 72 hrs by MTT assay. The format is functional, cell-based.
Data set [4] relates to NCI-460/Taxol. In words: Antiproliferative activity against human NCI-460/taxol cells assessed as reduction in cell viability after 72 hrs by MTT assay. The format is functional, cell-based.
Data set [5] concerns L02. Put plainly: Cytotoxicity against human HL7702 cells incubated for 72 hrs by MTT assay. Particulars: l02, 72 h. The data set is classed as toxicity, cell-based.
Data set [6] deals with BEAS-2B. Put plainly: Cytotoxicity against human BEAS-2B cells incubated for 72 hrs by MTT assay. The data set is classed as toxicity, cell-based.
Data set [7] relates to MCF7. Put plainly: Antiproliferative activity against human MCF7 cells assessed as reduction in cell viability preincubated for with NEM for 1 hr followed by compound addition by xCELLigence real time analysis. The data set is classed as functional, cell-based.
Data set [8] relates to MCF7. In words: Antiproliferative activity against human MCF7 cells assessed as reduction in cell viability at 1 to 1000 nM preincubated for with NEM for 1 hr followed by compound addition and measured after 72 hrs by MTT assay. The data set is classed as functional, cell-based. Particulars: dose 1-1000 nM.
Data set [9] deals with MCF7. Put plainly: Antiproliferative activity against human MCF7 cells assessed as reduction in cell viability at 1 to 1000 nM preincubated for with rhamnose for 1 hr followed by compound addition and measured after 72 hrs by MTT assay. The data set is classed as functional, cell-based. Particulars: dose 1-1000 nM.
The nature of data set [10]: Stability in mouse plasma. The data set is classed as ADME, cell-free.
The subject of data set [11] is MCF7. In words: Antitumor activity against human MCF7 cells xenografted in mouse assessed as reduction in tumor growth at 3.2 to 6.4 mg/kg, ip administered every 3 days for 3 times and measured after 14 days. The data set is classed as functional, organism-based. The settings on record: dose 3.2-6.4 mg/kg, time 14.0 day. (In xenograft studies the graft and the host belong to different species.)

In data set [12] the test system is MCF7. In words: Antitumor activity against human MCF7 cells xenografted in mouse assessed as reduction in tumor weight at 3.2 to 6.4 mg/kg, ip administered every 3 days for 3 times and measured after 14 days. Particulars: dose 3.2-6.4 mg/kg, time 14.0 day. The data set is classed as functional, organism-based.
Data set [13] in a line: Toxicity in mouse xenografted with human MCF7 cells assessed as reduction in body weight at 3 mg/kg, ip administered every 3 days for 3 times and measured after 14 days. The data set is classed as organism-based. The settings on record: in vivo, 336 h, time 14 day.
Data set [14] can be described thus: Toxicity in mouse xenografted with human MCF7 cells at 3 mg/kg, ip administered every 3 days for 3 times and measured after 14 days. The format is organism-based. Particulars: in vivo, 336 h, time 14 day.
A short description of data set [15]: Toxicity in mouse xenografted with human MCF7 cells assessed as animal death at 3.2 mg/kg, ip administered every 3 days for 3 times and measured after 14 days. Particulars: in vivo, 336 h, time 14 day. The data set is classed as organism-based.
The nature of data set [16]: Toxicity in mouse xenografted with human MCF7 cells assessed as change in body weight at 3.2 mg/kg, ip administered every 3 days for 3 times and measured after 14 days. Particulars: in vivo, 336 h, time 14 day. The data set is classed as organism-based.
In data set [17] the test system is MCF7. In words: Antitumor activity against human MCF7 cells xenografted in mouse assessed as appearance of intracellular space dilatation in tumor cells at 3.2 to 6.4 mg/kg, ip administered every 3 days for 3 times measured after 14 days by H and E staining based assay. The settings on record: dose 3.2-6.4 mg/kg, time 14.0 day. The data set is classed as functional, organism-based.

Data set [18] has as its system MCF7. In words: Antitumor activity against human MCF7 cells xenografted in mouse assessed as appearance of small cavities in tumor cells at 3.2 to 6.4 mg/kg, ip administered every 3 days for 3 times measured after 14 days by H and E staining based assay. The data set is classed as functional, organism-based. Particulars: dose 3.2-6.4 mg/kg, time 14.0 day.
In data set [19] the test system is MCF7. Put plainly: Antitumor activity against human MCF7 cells xenografted in mouse assessed as reduction in PCNA positive cells at 3.2 to 6.4 mg/kg, ip administered every 3 days for 3 times measured after 14 days by H and E staining based assay. The data set is classed as functional, organism-based. The settings on record: dose 3.2-6.4 mg/kg, time 14.0 day.
Data set [20] in a line: Toxicity in mouse xenografted with human MCF7 cells assessed as spleen damage at 3.2 mg/kg, ip administered every 3 days for 3 times and measured after 14 days. The format is organism-based. The settings on record: in vivo, 336 h, time 14 day.
A short description of data set [21]: Toxicity in mouse xenografted with human MCF7 cells assessed as kidney damage at 3.2 mg/kg, ip administered every 3 days for 3 times and measured after 14 days. The format is organism-based. The settings on record: in vivo, 336 h, time 14 day.
A short description of data set [22]: Prodrug release in DTT at pH 7.4 after 12 hrs by HPLC analysis. The settings on record: pH 7.4, 12 h. The data set is classed as ADME.
A short description of data set [23]: Prodrug release in DTT at pH 7.4 assessed as Epothilone B release after 12 hrs by HPLC analysis. The data set is classed as ADME. The settings on record: pH 7.4, 12 h.
The nature of data set [24]: Prodrug release in PBS at pH 7.4 assessed as Epothilone B release in presence of different concentrations of DTT by HPLC analysis. The format is ADME. Particulars: buffer.
A short description of data set [25]: Toxicity in mouse xenografted with human MCF7 cells assessed as animal death at 3 mg/kg, ip administered every 3 days for 3 times and measured on day 8. The settings on record: in vivo, 192 h, time 8 day. The format is organism-based.
Data set [26] relates to MCF7. Put plainly: Antitumor activity against human MCF7 cells xenografted in mouse assessed as appearance of intracellular space dilatation in tumor cells at 1.5 to 3 mg/kg, ip administered every 3 days for 3 times measured after 14 days by H and E staining based assay. The settings on record: dose 1.5-3 mg/kg, time 14.0 day. The format is functional, organism-based.
The subject of data set [27] is MCF7. In words: Antitumor activity against human MCF7 cells xenografted in mouse assessed as appearance of small cavities in tumor cells at 1.5 to 3 mg/kg, ip administered every 3 days for 3 times measured after 14 days by H and E staining based assay. The format is functional, organism-based. The settings on record: dose 1.5-3 mg/kg, time 14.0 day.
The test system of data set [28] is MCF7. Put plainly: Antitumor activity against human MCF7 cells xenografted in mouse assessed as reduction in PCNA positive cells at 1.5 to 3 mg/kg, ip administered every 3 days for 3 times measured after 14 days by H and E staining based assay. The settings on record: dose 1.5-3 mg/kg, time 14.0 day. The format is functional, organism-based.

As for `C/C(=C\c1csc(C)n1)[C@@H]1C[C@@H]2O[C@]2(C)CCC[C@H](C)[C@H](OC(=O)OCCSSCCOCc2cn(CCOCCOCCOCCO[C@@H]3O[C@@H](C)[C@H](O)[C@@H](O)[C@H]3O)nn2)[C@@H](C)C(=O)C(C)(C)[C@@H](O)CC(=O)O1`, the result in data set [1], in [2], in data set [3], in data set [4], in data set [11] and in [12] was Active. Also, the result in data set [17], in data set [18] and in data set [19] was Active. Moreover, the Activity entry in data set [5], in data set [6], in data set [13], in [14], in [15] and in [16] was “Non-Toxic” in each case. The Activity entry in [20] and in data set [21] was “Non-Toxic” throughout. Also, the result in [7], in [8] and in [9] was inactive. For the same compound, in [10], the Stability entry is “Stable”. The Drug metabolism entry was “Active” in data set [22], “Active” in [23] and “Not Active” in data set [24].
For `C/C(=C\c1csc(C)n1)[C@@H]1C[C@@H]2O[C@]2(C)CCC[C@H](C)[C@H](O)[C@@H](C)C(=O)C(C)(C)[C@@H](O)CC(=O)O1` [PATUPILONE], the outcome in [8], in data set [26], in [27] and in data set [28] was Active. Moreover, the Activity result in data set [13] and in data set [25] was “Toxic” in each case.
With `C/C(=C\c1csc(C)n1)[C@@H]1C[C@@H]2O[C@]2(C)CCC[C@H](C)[C@H](OC(=O)OCCSSCCOCc2cn(CCOCCOCCOCCO[C@@H]3O[C@H](CO)[C@@H](O[C@@H]4O[C@@H](C)[C@H](O)[C@@H](O)[C@H]4O)[C@H](O)[C@H]3O[C@@H]3O[C@@H](C)[C@H](O)[C@@H](O)[C@H]3O)nn2)[C@@H](C)C(=O)C(C)(C)[C@@H](O)CC(=O)O1`, the outcome in data set [1], in data set [2], in [3] and in [4] was Active.
`C/C(=C\c1csc(C)n1)[C@@H]1C[C@@H]2O[C@]2(C)CCC[C@H](C)[C@H](OC(=O)Cc2ccccc2SSCCC(=O)NCc2cn(CCOCCOCCOCCO[C@@H]3O[C@@H](C)[C@H](O)[C@@H](O)[C@H]3O)nn2)[C@@H](C)C(=O)C(C)(C)[C@@H](O)CC(=O)O1`: the results for the Drug metabolism result in data set [22] and in data set [23] were “Active” and “Not Active”, respectively.
